Earlier results as cited in patent publication US20220378857A1, “COMPOSITION FOR THE CARDIOVASCULAR RISK REDUCTION” (NEILOS S.R.L., priority 2019, published 2022).
Read-outs that look alike come from different tables or passages of the source.

[1] = 7.5 mg/die of active principle for 12 weeks
[2] = 11.4 mg/die of monacolin for 8 weeks

CC[C@H](C)C(=O)O[C@H]1C[C@@H](C)C=C2C=C[C@H](C)[C@H](CC[C@@H]3C[C@@H](O)CC(=O)O3)[C@H]21 [monacolin, monacolin k]
reduction in the levels of LDL cholesterol [1]: 22%
reduction in the levels of total cholesterol [1]: 16%
reduction in the levels of LDL cholesterol [2]: 26%
reduction in the levels of total cholesterol [2]: 20%
